# Measured values taken from patent US20220396586A1, “THIAZOLE CARBOXAMIDE COMPOUNDS AND USE THEREOF FOR THE TREATMENT OF MYCOBACTERIAL INFECTIONS” (THE GLOBAL ALLIANCE FOR TB DRUG DEVELOPMENT, INC., priority 2019, published 2022).
# Columns and labels:
# M. tb H37Rv = assay: MIC determination against M. tb H37Rv (MIC-MABA); type: cell-based, Mycobacterium tuberculosis; conditions: Mycobacterium tuberculosis, H37RV, 240 h, read-out: M. tb H37Rv: MIC-MABA, M. tb H37Rv; 7H9 broth; 10 days exposure; MIC = lowest concentration inhibiting fluorescence by 90%
# M. ab_ATCC = assay: MIC against Mycobacterium abscessus (M. ab_ATCC, MHII), procedure of Franz 2017; type: cell-based; conditions: Mycobacteroides abscessus, Mycobacterium abscessus ATCC
# From the text: The procedure described in Franz 2017 was used to generate the data shown in column 2 of Table 1.
Structure (SMILES),MIC (M. tb H37Rv) [mg/L],MIC (M. ab_ATCC) [mg/L]
"C[Si]1(C)CCC(NC(=O)c2cc3sc(-c4ccccc4F)nc3[nH]2)CC1 [MPL-373, N-(1,1-dimethylsilinan-4-yl)-2-(2-fluorophenyl)-4H-pyrrolo[2,3-d]thiazole-5-carboxamide]",0.084,6
"COc1nc2[nH]c(C(=O)NC3CC[Si]4(CCCC4)CC3)cc2s1 [MPL-393, 2-methoxy-N-(5-silaspiro[4.5]decan-8-yl)-4H-pyrrolo[2,3-d]thiazole-5-carboxamide]",0.062,> 64
"COc1nc2[nH]c(C(=O)NC3CC[Si]4(CCCCC4)CC3)cc2s1 [MPL-394, 2-methoxy-N-(6-silaspiro[5.5]undecan-3-yl)-4H-pyrrolo[2,3-d]thiazole-5-carboxamide]",0.04,> 64
"COc1nc2[nH]c(C(=O)NC3CCC[Si](C)(C)CCC3)cc2s1 [MPL-396, N-(1,1-dimethylsilocan-5-yl)-2-methoxy-4H-pyrrolo[2,3-d]thiazole-5-carboxamide]",0.309,> 64
"COc1nc2[nH]c(C(=O)NC3CC[Si](C)(C)C3)cc2s1 (centres unmarked) [MPL-403, N-(1,1-dimethylsilolan-3-yl)-2-methoxy-4H-pyrrolo[2,3-d]thiazole-5-carboxamide]",0.809,4
"C[Si]1(C)CCC(NC(=O)c2cc3sc(-c4ccccc4)nc3[nH]2)C1 (centres unmarked) [MPL-404, N-(1,1-dimethylsilolan-3-yl)-2-phenyl-4H-pyrrolo[2,3-d]thiazole-5-carboxamide]",0.083,64
"COCCOc1nc2[nH]c(C(=O)NC3CC[Si]4(CCCCC4)CC3)cc2s1 [MPL-427, 2-(2-methoxyethoxy)-N-(6-silaspiro[5.5]undecan-3-yl)-4H-pyrrolo[2,3-d] thiazole-5-carboxamide]",0.036,> 64
"COCc1nc2[nH]c(C(=O)NC3CC[Si]4(CCCCC4)CC3)cc2s1 [MPL-429, 2-(methoxymethyl)-N-(6-silaspiro[5.5]undecan-3-yl)-4H-pyrrolo[2,3-d]thiazole-5-carboxamide]",0.058,64
"Cc1c(C(=O)NC2CC[Si]3(CCCCC3)CC2)[nH]c2nc(-c3ccccc3)sc12 [MPL-431, 6-methyl-2-phenyl-N-(6-silaspiro[5.5]undecan-3-yl)-4H-pyrrolo[2,3-d]thiazole-5-carboxamide]",0.021,> 64
"COc1nc2[nH]c(C(=O)NC3CCC(C)(C)CC3)cc2s1 [MPL-456, N-(4,4-dimethylcyclohexyl)-2-methoxy-4H-pyrrolo[2,3-d]thiazole-5-carboxamide]",0.317,1
"O=C(NC1CC[Si]2(CCCC2)CC1)c1cc2sc(OC3CC3)nc2[nH]1 [MPL-458, 2-(cyclopropoxy)-N-(5-silaspiro[4.5]decan-8-yl)-4H-pyrrolo[2,3-d]thiazole-5-carboxamide]",0.124,> 64
"O=C(NC1CC[Si]2(CCCC2)CC1)c1cc2sc(OC3CCC3)nc2[nH]1 [MPL-459, 2-(cyclobutoxy)-N-(5-silaspiro[4.5]decan-8-yl)-4H-pyrrolo[2,3-d]thiazole-5-carboxamide]",0.0593,> 64
"C[Si]1(C)CCCC(NC(=O)c2cc3sc(OC4CC4)nc3[nH]2)CC1 (centres unmarked) [MPL-472, 2-(cyclopropoxy)-N-(1,1-dimethylsilepan-4-yl)-4H-pyrrolo[2,3-d]thiazole-5-carboxamide]",0.06,> 64
"C[Si]1(C)CCC(NC(=O)c2cc3sc(C4CCCC4)nc3[nH]2)CC1 [MPL-474, 2-cyclopentyl-N-(1,1-dimethylsilinan-4-yl)-4H-pyrrolo[2,3-d] thiazole-5-carboxamide]",0.061,> 64
"C[Si]1(C)CCCC(NC(=O)c2cc3sc(OC4CCC4)nc3[nH]2)CC1 (centres unmarked) [MPL-475, 2-(cyclobutoxy)-N-(1,1-dimethylsilepan-4-yl)-4H-pyrrolo[2,3-d]thiazole-5-carboxamide]",0.046,16
"C[Si]1(C)CCCC(NC(=O)c2cc3sc(OC4CCCC4)nc3[nH]2)CC1 (centres unmarked) [MPL-478, 2-(cyclopentoxy)-N-(1,1-dimethylsilepan-4-yl)-4H-pyrrolo[2,3-d]thiazole-5-carboxamide]",0.02,> 64
